Laboratory results reported in patent publication US5292733A, “Cephalosporin compounds” (Lucky Limited, priority 1991, dated 1994).
Converted amounts (≈) assume the structure as drawn.

Assays:
Test in all cases: Antibacterial activity MIC, two-fold agar dilution
Format in all cases: cell-based
[1] = test system: Morganella morganii ATCC 8076h; details: ATCC8076H, Muller-Hinton agar, 37° C., 20 hours
Method: (§1) These MIC values were taken by employing a two-fold dilution method: that is, two-fold serial dilutions of each of the test compounds were made and dispersed in a Muller-Hinton agar medium; 2 μl of the standard test strain which had the 10^7 CFU(Colony Forming Unit) per ml was inoculated on the medium; and these were incubated at 37° C. for 20 hours. The results of the MIC tests are shown Table 1.

[2] = test system: Serratia marcescens ATCC 27117; details: ATCC27117; Serratia marcescens ATCC 27117; Muller-Hinton agar, 37° C., 20 hours; read-out: Antibacterial Activity MIC
Method: as §1

[3] = test system: Pseudomonas aeruginosa ATCC 27853; details: ATCC27853; Pseudomonas aeruginosa ATCC 27853; Muller-Hinton agar, 37° C., 20 hours; read-out: Antibacterial Activity MIC
Method: as §1

[4] = test system: Proteus mirabilis ATCC 25933; details: ATCC25933; Proteus mirabilis ATCC 25933; Muller-Hinton agar, 37° C., 20 hours; read-out: Antibacterial Activity MIC
Method: as §1

[5] = test system: Salmonella typhimurium ATCC 14028; details: Salmonella enterica; Salmonella typhimurium ATCC 14028; Muller-Hinton agar, 37° C., 20 hours; read-out: Antibacterial Activity MIC
Method: as §1

[6] = test system: Acinetobacter calcoaceticus ATCC 15473; details: ATCC15473; Acinetobacter calcoaceticus ATCC 15473; Muller-Hinton agar, 37° C., 20 hours; read-out: Antibacterial Activity MIC
Method: as §1

[7] = test system: Bacillus megaterium ATCC 9885; details: Priestia megaterium, ATCC9885; Bacillus megaterium ATCC 9885; Muller-Hinton agar, 37° C., 20 hours; read-out: Antibacterial Activity MIC
Method: as §1

[8] = test system: Enterobacter aerogenes ATCC 29751; details: Klebsiella aerogenes, ATCC29751; Enterobacter aerogenes ATCC 29751; Muller-Hinton agar, 37° C., 20 hours; read-out: Antibacterial Activity MIC
Method: as §1

[9] = test system: Providencia rettgeri ATCC 9250; details: ATCC9250, Muller-Hinton agar, 37° C., 20 hours
Method: as §1

[10] = test system: Shigella flexneri ATCC 11836; details: ATCC11836, Muller-Hinton agar, 37° C., 20 hours
Method: as §1

[11] = test system: Staphylococcus aureus ATCC 10537; details: ATCC10537; Staphylococcus aureus ATCC 10537; Muller-Hinton agar, 37° C., 20 hours; read-out: Antibacterial Activity MIC
Method: as §1

[12] = test system: Citrobacter freundii ATCC 8090; details: ATCC8090; Citrobacter freundii ATCC 8090; Muller-Hinton agar, 37° C., 20 hours; read-out: Antibacterial Activity MIC
Method: as §1

[13] = test system: Bacillus cereus ATCC 11778; details: ATCC11778; Bacillus cereus ATCC 11778; Muller-Hinton agar, 37° C., 20 hours; read-out: Antibacterial Activity MIC
Method: as §1

[14] = test system: Pseudomonas aeruginosa ATCC 25619; details: ATCC25619; Pseudomonas aeruginosa ATCC 25619; Muller-Hinton agar, 37° C., 20 hours; read-out: Antibacterial Activity MIC
Method: as §1

[15] = test system: Staphylococcus epidermidis ATCC 12228; details: ATCC12228; Staphylococcus epidermidis ATCC 12228; Muller-Hinton agar, 37° C., 20 hours; read-out: Antibacterial Activity MIC
Method: as §1

[16] = test system: Escherichia coli ATCC 25922; details: ATCC25922, Muller-Hinton agar, 37° C., 20 hours
Method: as §1

[17] = test system: Proteus vulgaris ATCC 6059; details: ATCC6059; Proteus vulgaris ATCC 6059; Muller-Hinton agar, 37° C., 20 hours; read-out: Antibacterial Activity MIC
Method: as §1

[18] = test system: Streptococcus faecalis ATCC 29212; details: Enterococcus faecalis, ATCC29212; Streptococcus faecalis ATCC 29212; Muller-Hinton agar, 37° C., 20 hours; read-out: Antibacterial Activity MIC
Method: as §1

[19] = test system: Shigella sonnei ATCC 11060; details: ATCC11060, Muller-Hinton agar, 37° C., 20 hours
Method: as §1

[20] = test system: Staphylococcus aureus ATCC 6538p; details: ATCC6538P; Staphylococcus aureus ATCC 6538p; Muller-Hinton agar, 37° C., 20 hours; read-out: Antibacterial Activity MIC
Method: as §1

[21] = test system: Klebsiella pneumoniae ATCC 10031; details: ATCC10031; Klebsiella pneumoniae ATCC 10031; Muller-Hinton agar, 37° C., 20 hours; read-out: Antibacterial Activity MIC
Method: as §1

[22] = test system: Enterobacter cloacae ATCC 27508; details: ATCC27508; Enterobacter cloacae ATCC 27508; Muller-Hinton agar, 37° C., 20 hours; read-out: Antibacterial Activity MIC
Method: as §1

[23] = test system: Escherichia coli ATCC 10536; details: ATCC10536, Muller-Hinton agar, 37° C., 20 hours
Method: as §1

[24] = test system: Pseudomonas aeruginosa ATCC 10145; details: ATCC10145; Pseudomonas aeruginosa ATCC 10145; Muller-Hinton agar, 37° C., 20 hours; read-out: Antibacterial Activity MIC
Method: as §1

[25] = test system: Micrococcus luteus ATCC 9341; details: ATCC9341; Micrococcus luteus ATCC 9341; Muller-Hinton agar, 37° C., 20 hours; read-out: Antibacterial Activity MIC
Method: as §1

| SMILES | MIC [1] | MIC [2] | MIC [3] | MIC [4] | MIC [5] | MIC [6] | MIC [7] | MIC [8] | MIC [9] | MIC [10] | MIC [11] | MIC [12] | MIC [13] | MIC [14] | MIC [15] | MIC [16] | MIC [17] | MIC [18] | MIC [19] | MIC [20] | other results |
| --- | --- | --- | --- | --- | --- | --- | --- | --- | --- | --- | --- | --- | --- | --- | --- | --- | --- | --- | --- | --- | --- |
| CCO/N=C(\C(=O)N[C@@H]1C(=O)N2C(C(=O)[O-])=C(CSc3cc(N)nc(N)[n+]3CC)CS[C@H]12)c1nsc(N)n1 [Compound I-6, (6R,7R)-7-[(Z)-2-(5-amino-1,2,4-thiadiazol-3-yl)-2-(ethoxyimino)acetamido]-3-(2,6-diamino-3-ethylpyrimidinium-4-yl)thiomethyl-3-cephem-4-carboxylate] | ≤ 0.008 µg/mL | 0.25 µg/mL (≈ 0.431 µM) | 16 µg/mL (≈ 27.6 µM) | 0.016 µg/mL (≈ 0.0276 µM) | 0.5 µg/mL (≈ 0.861 µM) | 8 µg/mL (≈ 13.8 µM) | 0.13 µg/mL (≈ 0.224 µM) | 0.5 µg/mL (≈ 0.861 µM) | ≤ 0.008 µg/mL | 0.063 µg/mL (≈ 0.108 µM) | 1 µg/mL (≈ 1.72 µM) | 0.13 µg/mL (≈ 0.224 µM) | 64 µg/mL (≈ 110 µM) | 2 µg/mL (≈ 3.44 µM) | 0.5 µg/mL (≈ 0.861 µM) | 0.13 µg/mL (≈ 0.224 µM) | 0.031 µg/mL (≈ 0.0534 µM) | > 128 µg/mL | 0.25 µg/mL (≈ 0.431 µM) | 1 µg/mL (≈ 1.72 µM) | MIC [21]: 0.031 µg/mL (≈ 0.0534 µM); MIC [22]: 0.063 µg/mL (≈ 0.108 µM); MIC [23]: 0.13 µg/mL (≈ 0.224 µM); MIC [24]: 16 µg/mL (≈ 27.6 µM); MIC [25]: 0.063 µg/mL (≈ 0.108 µM) |
| CO/N=C(\C(=O)N[C@@H]1C(=O)N2C(C(=O)[O-])=C(CSc3cc(N)nc(N)[n+]3C)CS[C@H]12)c1csc(N)n1 [Compound I-7, (6R,7R)-7-[(Z)-2-(2-aminothiazol-4-yl)-2-(methoxyimino)acetamido]-3-(2,6-diamino-3-methylpyrimidinium-4-yl)thiomethyl-3-cephem-4-carboxylate] | 0.016 µg/mL (≈ 0.029 µM) | 0.5 µg/mL (≈ 0.906 µM) | 32 µg/mL (≈ 58 µM) | 0.031 µg/mL (≈ 0.0562 µM) | 1 µg/mL (≈ 1.81 µM) | 8 µg/mL (≈ 14.5 µM) | 0.13 µg/mL (≈ 0.236 µM) | 0.5 µg/mL (≈ 0.906 µM) | ≤ 0.008 µg/mL | 0.063 µg/mL (≈ 0.114 µM) | 1 µg/mL (≈ 1.81 µM) | 0.25 µg/mL (≈ 0.453 µM) | 64 µg/mL (≈ 116 µM) | 2 µg/mL (≈ 3.63 µM) | 0.5 µg/mL (≈ 0.906 µM) | 0.13 µg/mL (≈ 0.236 µM) | 0.063 µg/mL (≈ 0.114 µM) | > 128 µg/mL | 0.5 µg/mL (≈ 0.906 µM) | 2 µg/mL (≈ 3.63 µM) | MIC [21]: 0.016 µg/mL (≈ 0.029 µM); MIC [22]: 0.016 µg/mL (≈ 0.029 µM); MIC [23]: 0.13 µg/mL (≈ 0.236 µM); MIC [24]: 64 µg/mL (≈ 116 µM); MIC [25]: 0.063 µg/mL (≈ 0.114 µM) |
| CCO/N=C(\C(=O)N[C@@H]1C(=O)N2C(C(=O)[O-])=C(CSc3cc(N)nc(N)[n+]3C)CS[C@H]12)c1nsc(N)n1 [Compound I-5, (6R,7R)-7-[(Z)-2-(5-amino-1,2,4-thiadiazol-3-yl)-2-(ethoxyimino)acetamido]-3-(2,6-diamino-3-methylpyrimidinium-4-yl)thiomethyl-3-cephem-4-carboxylate] | ≤ 0.008 µg/mL | 0.5 µg/mL (≈ 0.882 µM) | 16 µg/mL (≈ 28.2 µM) | 0.061 µg/mL (≈ 0.108 µM) | 0.5 µg/mL (≈ 0.882 µM) | 8 µg/mL (≈ 14.1 µM) | 0.13 µg/mL (≈ 0.229 µM) | 0.5 µg/mL (≈ 0.882 µM) | ≤ 0.008 µg/mL | 0.063 µg/mL (≈ 0.111 µM) | 1 µg/mL (≈ 1.76 µM) | 0.25 µg/mL (≈ 0.441 µM) | 64 µg/mL (≈ 113 µM) | 2 µg/mL (≈ 3.53 µM) | 0.5 µg/mL (≈ 0.882 µM) | 0.13 µg/mL (≈ 0.229 µM) | 0.031 µg/mL (≈ 0.0547 µM) | > 128 µg/mL | 0.25 µg/mL (≈ 0.441 µM) | 2 µg/mL (≈ 3.53 µM) | MIC [21]: 0.016 µg/mL (≈ 0.0282 µM); MIC [22]: 0.016 µg/mL (≈ 0.0282 µM); MIC [23]: 0.13 µg/mL (≈ 0.229 µM); MIC [24]: 32 µg/mL (≈ 56.5 µM); MIC [25]: 0.031 µg/mL (≈ 0.0547 µM) |
